Source: PMC7856678 (Bioorganic & medicinal chemistry, 2021)

Assays:
Cytotoxicity [1] = type: cell-based; details: human, TZM-bl cells
[2] = Solubility of compounds for antiviral/cytotoxicity testing; type: physicochemical; details: assays could not be performed
VSV-G pseudovirus = assay: microbe, parasite or virus in culture; type: cell-based
Cytotoxicity [3] = type: cell-based; details: human, U87-CD4-CXCR4 cells
TZM-bl cells = details: cited from earlier work
U87-CD4-CXCR4 cells = details: cells of VSV-G assay; cited from earlier work
TZM-bl/H9-HIV-1IIIB = assay: Cell-to-Cell HIV-1 transmission, CXCR4-tropic assay; type: cell-based; details: Human immunodeficiency virus 1, TZM-bl
TZM-bl/Molt-HIV-1ADA = assay: Cell-to-Cell HIV-1 transmission, CCR5-tropic assay; type: cell-based; details: Human immunodeficiency virus 1, TZM-bl

Structure (SMILES): NC[C@H](NC(=O)c1ccc(-c2cc(F)c(Cl)c(F)c2)[nH]1)c1nc(CCO)cs1 [Compound 9, N-(2-Amino-1-(4-(2-hydroxyethyl)thiazol-2-yl)ethyl)-5-(4-chloro-3,5-difluorophenyl)-1H-pyrrole-2-carboxamide]
- CC50 at 72 h (Cytotoxicity [1]): 32.8 ± 1 µM

Structure (SMILES): NC[C@H](NC(=O)c1ccc(-c2ccc(C(F)(F)F)c(F)c2)[nH]1)c1nc(C(=O)O)cs1 [Compound 21, 2-[2-Amino-1-[[5-[3-fluoro-4-(trifluoromethyl)phenyl]-1H-pyrrole-2-carbonyl]amino]ethyl]thiazole-4-carboxylic acid]
- Solubility [2]: Not soluble

Structure (SMILES): NC[C@H](NC(=O)c1ccc(-c2ccc(C(F)(F)F)cc2F)[nH]1)c1nc(CCO)cs1 [Compound 13, N-(2-Amino-1-(4-(2-hydroxyethyl)thiazol-2-yl)ethyl)-5-(2-fluoro-4-(trifluoromethyl)phenyl)-1H-pyrrole-2-carboxamide]
- IC50 (VSV-G pseudovirus): 11.9 ± 0.5 µM
- CC50 at 3 days (Cytotoxicity [3]): 33.5 ± 0.6 µM

Structure (SMILES): NC[C@@H](NC(=O)c1ccc(-c2ccc(C(F)(F)F)c(F)c2)[nH]1)c1nc(C(=O)O)cs1 [Compound 22, 2-[2-Amino-1-[[5-[3-fluoro-4-(trifluoromethyl)phenyl]-1H-pyrrole-2-carbonyl]amino]ethyl]thiazole-4-carboxylic acid]
- Solubility [2]: Not soluble

Structure (SMILES): N#Cc1ccc(-c2ccc(C(=O)N[C@@H](CN)c3nc(CO)cs3)[nH]2)cc1 [Compound 4, N-(2-Amino-1-(4-(hydroxymethyl)thiazol-2-yl)ethyl)-5-(4-cyanophenyl)-1H-pyrrole-2-carboxamide]
- CC50 at 3 days (Cytotoxicity [1]): > 82 µM

Structure (SMILES): NC[C@@H](NC(=O)c1ccc(-c2ccc(C(F)(F)F)cc2)[nH]1)c1ncc(CO)s1 [NBD-14136]
- CC50 (TZM-bl cells): 42.4 ± 1 µM
- CC50 (U87-CD4-CXCR4 cells): 46.3 ± 10.6 µM

Structure (SMILES): COc1cnc(-n2cnc(C)n2)c2[nH]cc(C(=O)C(=O)N3CCN(C(=O)c4ccccc4)CC3)c12 [BMS-626529]
- IC50 (TZM-bl/H9-HIV-1IIIB): 0.02 ± 0.005 µM
- IC50 (TZM-bl/Molt-HIV-1ADA): ~0.2 µM
